Reference: patent US20240361317A1, “PROBES BASED ON VOLATILE ORGANIC COMPOUNDS AND USES THEREOF FOR THE DIAGNOSIS AND PROGNOSIS OF PATHOLOGICAL CONDITIONS” (Centre National de la Recherche Scientifique, priority 2021, published 2024)

Assays:
β-D-galactosidase = biological target: T1, β-D-galactosidase (Homo sapiens, UniProt P16278); assay: Plasma protocol: labeled ethanol released in headspace of plasma after adding probe; type: biochemical; conditions: for discernment between healthy patients and cancer patients: cocktail of 4 probes, plasma of breast and lung cancer patients vs 4 healthy
T1 construct: from tissue; host or cells: human blood plasma
T1 sequence (P16278 29-677): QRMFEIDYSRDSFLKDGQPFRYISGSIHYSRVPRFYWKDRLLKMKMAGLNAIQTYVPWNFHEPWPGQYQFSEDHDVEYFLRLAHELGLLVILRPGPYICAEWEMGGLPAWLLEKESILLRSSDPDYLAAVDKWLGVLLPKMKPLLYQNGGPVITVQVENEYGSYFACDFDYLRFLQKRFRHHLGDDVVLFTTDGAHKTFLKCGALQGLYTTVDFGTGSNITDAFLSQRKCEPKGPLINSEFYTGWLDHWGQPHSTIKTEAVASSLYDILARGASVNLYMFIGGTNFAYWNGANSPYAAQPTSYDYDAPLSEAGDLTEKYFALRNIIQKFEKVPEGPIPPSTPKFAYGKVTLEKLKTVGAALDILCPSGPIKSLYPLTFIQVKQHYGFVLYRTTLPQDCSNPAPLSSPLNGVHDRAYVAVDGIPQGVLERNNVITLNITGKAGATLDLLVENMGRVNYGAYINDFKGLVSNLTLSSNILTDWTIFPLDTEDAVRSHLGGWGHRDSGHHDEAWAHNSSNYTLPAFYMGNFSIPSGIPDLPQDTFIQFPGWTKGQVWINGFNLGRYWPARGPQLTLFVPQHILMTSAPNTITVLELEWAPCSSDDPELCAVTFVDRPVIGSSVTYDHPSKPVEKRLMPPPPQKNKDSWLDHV
Experimental: (§1) The plasma (approximately […]) is extracted and stored at −20° C. until analysis. An aliquot of 25 μL of plasma is sampled and inserted into a […] with an insert. This biological sample is added to 50 μL of acetate buffer solution (pH 5), protease inhibitor (1×) and 25 μL probe D5-ethyl-β-D-glucuronide at […]. After hermetic closure and agitation to the vortex of the vial, an SPME (SPME in semi-polar phase of the Car/PDMS, 1 cm long and 75 μm thick type with a 24 ga needle; Supelco) of the gas phase above the sample of a duration of 30 mi is carried out after 2 h, 4 h and 7 h of reaction. Each kinetic point requires a vial reaction, and is carried out in duplicate. The VOCs trapped on the SPME fiber are then analyzed by G-TQMS. GC-TMS detection of the ethanol isotopes (thus including ethanol-D5) is carried out with gas chromatography coupled to a triple quadrupole equipped with an E1 source (TSQ 9000, Thermo Fisher Scientific). The system is controlled by the software TSQ 9000 and the results are analyzed with the Xcalibur software (Thermo Fisher Scientific).
(§2) In order to verify the diagnostic efficacy of this cocktail, it was tested on samples of plasma taken from 4 patients suffering from breast cancer and 3 patients with lung cancer. These patients were diagnosed, but had at the time of sampling not yet received treatment suited to their pathological condition.
After adding the 4 probes (according to the above protocol), the quantity of the 4 isotopes of the ethanol released above the samples of the patients was measured over time. The responses of each isotope were compared with those obtained when the cocktail was added to plasmas of 4 healthy patients. An experimental blank was also carried out each day of analysis. […]
(§3) According to the plasma protocol described above, the probes were used to detect the six enzymatic activities in these samples. […] The VOCs trapped on the SPME fiber are then analyzed by GC-TQMS according to the parameters defined in Tables 4 and 5. […]

β-glucuronidase [1] = biological target: T2, β-glucuronidase (Homo sapiens, UniProt P08236); assay: as above; type: biochemical; conditions: Ethanol-D5; Cocktail 1; 5·10^−4/5·10^−5 mol·L^−1; Splitless
T2 construct: from tissue; host or cells: human blood plasma
T2 sequence (P08236 23-651): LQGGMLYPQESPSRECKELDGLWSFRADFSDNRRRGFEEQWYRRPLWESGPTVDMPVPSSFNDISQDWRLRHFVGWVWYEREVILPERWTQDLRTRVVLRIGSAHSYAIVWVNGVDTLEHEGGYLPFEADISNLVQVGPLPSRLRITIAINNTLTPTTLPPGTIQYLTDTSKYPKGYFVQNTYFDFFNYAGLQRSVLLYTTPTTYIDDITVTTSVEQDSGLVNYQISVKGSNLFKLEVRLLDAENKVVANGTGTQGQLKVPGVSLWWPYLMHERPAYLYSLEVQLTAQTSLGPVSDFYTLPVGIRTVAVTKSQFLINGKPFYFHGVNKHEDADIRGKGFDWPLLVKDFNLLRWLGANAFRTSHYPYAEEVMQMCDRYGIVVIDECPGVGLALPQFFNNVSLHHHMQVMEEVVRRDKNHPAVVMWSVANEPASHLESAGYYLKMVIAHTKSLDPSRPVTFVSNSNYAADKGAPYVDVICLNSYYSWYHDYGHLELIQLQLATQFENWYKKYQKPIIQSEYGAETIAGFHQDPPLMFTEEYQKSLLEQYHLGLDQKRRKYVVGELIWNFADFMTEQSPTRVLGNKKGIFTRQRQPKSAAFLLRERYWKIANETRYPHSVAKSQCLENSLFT
Experimental: as §1
Blood samples were taken by the caregiver associated with the oncological service, then collected and pretreated with the CIC. This study included samples of plasma taken from 11 patients suffering from breast cancer and 11 patients suffering from lung cancer.
These patients were diagnosed, but had at the time of sampling not yet received treatment. Their response was compared to that obtained from the plasma of 4 healthy patients. The results were compared to an experimental blank wherein the probe was added, but the enzyme was not present (FIG. 3). […]
After adding the 4 probes (according to the above protocol), the quantity of the 4 isotopes of the ethanol released above the samples of the patients was measured over time. […]
as §3

N-acetyl-glucosaminidase = assay: as above; type: biochemical, human
Experimental: as §1, §2
(§4) After adding the 4 probes (according to the above protocol), the quantity of the 4 isotopes of the ethanol released above the samples of the patients was measured over time. The responses of each isotope were compared with those obtained when the cocktail was added to plasmas of 4 healthy patients. An experimental blank was also carried out each day of analysis. These blanks correspond to negative controls wherein the cocktail was added, whereas none of the 4 enzymes was present therein (FIG. 9).
(§5) According to the plasma protocol described above, the probes were used to detect the six enzymatic activities in these samples. To summarize, an aliquot of 25 μL of plasma will be sampled and inserted into a 2 mL vial with an insert. This biological sample was added from 61.4 μL buffer solution (pH 5), 3.6 μL of protease inhibitor (1×) and 10 μL of one or the other of the cocktails. After hermetic closure and agitation to the vortex of the vial, an SPME (SPME in semi-polar phase of the Car/PDMS, 1 cm long and 75 μm thick type with a 24 ga needle, Supelco) of the gas phase above the sample of a duration of 30 min will be carried out after 2 h, 4 h and 7 h of reaction. Each kinetic point requires a vial reaction, and was carried out in duplicate. The VOCs trapped on the SPME fiber are then analyzed by GC-TQMS according to the parameters defined in Tables 4 and 5. […]

α-L-fucosidase = assay: as above; type: biochemical, human
Experimental: as §1, §2, §4, §5

[2] = system: KB tumors (tumor xenograft, tumor cells of the nasopharynx KB); assay: In vivo test of cocktail of 4 probes: ethanol isotopes exhaled after i.v. injection; set-up: species or system mouse; conditions: 15 days after implantation; 1 h after i.v. injection
Experimental: In the context of this study, the quantity of 4 expired isotopes by mouse models carrying a tumor xenograft (tumor cells of the nasopharynx KB; n=6) was compared to that exhaled by healthy animals (n=6) after i.v. injection of the cocktail.
The concentration of the 4 probes to be injected was determined beforehand according to a precise experimental plan having the objective of determining the amount of each probe inducing a minimum ethanol response in healthy animals (signal reaching a low or even zero basal level). In this context, the healthy animals received increasing doses of the 4 probes ([…] at 100 μg·kg^−1). The animals were then placed in a hermetic cage for 1 h. The amount of each ethanol isotope present in the breath of the animals was then measured for 30 min via an SPME sample, then a GC-TQMS analysis.
Once the i.v. doses are set, the cocktail was injected into healthy mice and diseased mice after 12 and then 15 days of implantation of the xenograft. The amount of the ethanol isotopes exhaled by the animals was measured 1 h after injection of the cocktail (FIG. 10). A negative control on two mice (healthy and diseased) was carried out. This control consisted of measuring the quantity of 4 isotopes of ethanol in the air surrounding the mice which had not received the cocktail. Ethanol-D5, ethanol-D4 and ethanol-^13CD5 were not detected. […]

β-glucuronidase [3] = biological target: T2, β-glucuronidase; assay: Reference method: hydrolysis of para-nitrophenol glucuronide, UV detection at 400 nm, on patient plasma; type: biochemical; conditions: plasma of cancer and healthy patients
Description: The limit of detection of the enzyme with the probe is between […] (signal to noise 9) and […] (signal to noise 37), which leads to a minimum quantity of detectable enzyme equal to 1.10^−18 mol. This LOD is 100 times lower than the threshold value obtained according to the reference detection method of this same enzyme (Li et al., 2018, Biotechnology Letters, 40, 11 1-118; Xiao et al., 2020, RSC Advances, 10, 22966). This method corresponds to the hydrolysis of para-nitrophenol glucuronide. It was carried out in acetate buffer […], followed by UV detection at 400 nm of the para-nitrophenol (FIG. 2).
Finally, these same plasma samples were tested with the reference method targeting […] (UV detection in the presence of para-nitrophenol; protocol described page 5).

N-acetyl glucosaminidase = assay: Specificity study: hydrolysis of probes by the enzyme; type: biochemical
Experimental: (§6) The detection performances of this compound in the presence of ethanol and ethanol-D5 were then verified. […] The detection ranges of ethanol-D5 and ethanol-^13C-D5 were then carried out under SPME sampling conditions developed for biological samples (30 min of sampling at 30° C.). The two isotopes were present in mixtures in solution. The limits of detection obtained are respectively […]. The SPME-GC-TQMS method therefore allows a sharp differentiation of the two isotopes according to their mass fragmentation. An experimental study was then carried out in order to evaluate the affinity of the D5-ethyl-β-D-glucuronide and ^13C-D5-ethyl-N-acetylglucosamine for their respective enzyme (β-glucuronidase and N-acetyl glucosaminidase). For this, the efficacy of hydrolysis of each of these enzymes was studied in the presence of their respective probe (FIG. 6) then in the presence of the substrate probe of its partner (FIG. 7). […] In the presence of the two substrates, each enzyme gives a signal only for the probe specific to it (FIG. 8).

β-glucuronidase [4] = biological target: β-glucuronidase (Escherichia coli, UniProt P05804); assay: as above; type: biochemical
Experimental: as §6

β-glucuronidase (Escherichia coli, UniProt P05804), sequence (P05804 whole entry): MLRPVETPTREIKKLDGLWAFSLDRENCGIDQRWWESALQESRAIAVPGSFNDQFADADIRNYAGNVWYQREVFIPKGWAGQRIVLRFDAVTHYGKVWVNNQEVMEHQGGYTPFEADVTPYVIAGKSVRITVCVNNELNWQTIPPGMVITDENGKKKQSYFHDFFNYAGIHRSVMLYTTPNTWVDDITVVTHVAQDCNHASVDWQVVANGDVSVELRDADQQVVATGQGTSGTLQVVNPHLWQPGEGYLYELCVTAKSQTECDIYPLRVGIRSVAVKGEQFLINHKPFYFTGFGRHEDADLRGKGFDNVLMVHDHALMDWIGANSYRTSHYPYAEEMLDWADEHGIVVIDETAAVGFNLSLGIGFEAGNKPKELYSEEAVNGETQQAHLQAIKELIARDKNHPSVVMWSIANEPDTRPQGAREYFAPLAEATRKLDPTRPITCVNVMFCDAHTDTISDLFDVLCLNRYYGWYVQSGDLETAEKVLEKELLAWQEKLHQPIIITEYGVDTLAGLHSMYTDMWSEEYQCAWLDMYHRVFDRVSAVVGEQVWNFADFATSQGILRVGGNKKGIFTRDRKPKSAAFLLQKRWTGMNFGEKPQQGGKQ

CCC[C@@H]1C[C@H](CC)[C@H](C)[C@H](C)[C@H]1C
Plasma response range (u.a.) (β-D-galactosidase; Ethanol-D2, Cocktail 1, 10^−3/10^−4 mol·L^−1, Splitless): 2000-16000 u.a.

CCC[C@@H]1C[C@H](C(C)C)[C@@H](C)[C@H](C)[C@H]1C
Plasma response range (u.a.) (β-glucuronidase [1]): 1000-35000 u.a.

C=C(C)C[C@@H]1[C@@H](CCC)C[C@H](CC)[C@@H](C)[C@@H]1C
Plasma response range (u.a.) (N-acetyl-glucosaminidase; Ethanol-13CD5, Cocktail 2, 10^−3/10^−4 mol·L^−1, Split 1:15): 10000-300000 u.a.

CCC[C@@H]1C[C@H](C)[C@@H](C)[C@@H](C)[C@@H]1C
Plasma response range (u.a.) (α-L-fucosidase; Ethanol-D4, Cocktail 3, 10^−3/10^−4 mol·L^−1, Splitless): 5000-230000 u.a.

[2H]C([2H])(C)O[C@@H]1O[C@H](CO)[C@H](O)[C@H](O)[C@H]1O [D2-ethyl-β-D-galactopyranoside]
discernment between healthy patients and cancer patients (β-D-galactosidase): does not make it possible to discern healthy patients from cancer patients
discernment between healthy patients and cancer patients (β-D-galactosidase; listed as D2-ethyl-β-d-galactopyranoside): does not make it possible to differentiate healthy patients from breast cancer or lung cancer patients
activation of probe in the microenvironment of KB (nasopharyngeal) tumors, release of ethanol isotope in exhaled air [2]: activated

[2H]C(O[C@@H]1O[C@@H](C)[C@@H](O)[C@@H](O)[C@@H]1O)C([2H])([2H])[2H] (stereo partly drawn) [D4-ethyl-1-α-L-fucopyranoside]
discernment between healthy patients and cancer patients (α-L-fucosidase; cocktail of 4 probes, plasma of breast and lung cancer patients vs healthy): allow clear discernment between healthy patients and cancer patients

O=C(O)[C@H]1O[C@@H](Oc2ccc([N+](=O)[O-])cc2)[C@H](O)[C@@H](O)[C@@H]1O [para-nitrophenol glucuronide]
detection of the enzyme in the same plasma samples by the reference method (β-glucuronidase [3]): not detected in any of the samples

^13C-D5-ethyl-N-acetylglucosamide [^13C-D5-ethyl-N-acetylglucosamine]
discernment between healthy patients and cancer patients (N-acetyl-glucosaminidase; cocktail of 4 probes, plasma of breast and lung cancer patients vs 4 healthy): allow clear discernment between healthy patients and cancer patients
hydrolysis of probe by N-acetyl glucosaminidase (labeled ethanol signal) (N-acetyl glucosaminidase): has hydrolyzed its own probe
hydrolysis of probe by β-glucuronidase (labeled ethanol signal) (β-glucuronidase [4]): does not hydrolysis
